The target in assay [1] is Histone deacetylase 4 (Homo sapiens, UniProt P56524). The assay is described as follows: (§1) Inhibition Assay: The inhibitions of activities of HDAC enzymes by the compounds N1'-[3-fluoro-4-[[7-[4-(hydroxyamino)-4-oxobutoxy]-6-methoxy-4-quinolyl]oxy]phenyl]-N1-(4-fluoro phenyl)cyclopropane-1,1-dicarboxamide prepared in Example 9 and N1'-[3-fluoro-4-[[7-[6-(hydroxyamino)-6-oxohexyloxy]-6-methoxy-4-quinolyl]oxy]phenyl]-N1-(4-fluo rophenyl)cyclopropane-1,1-dicarboxamide prepared in Example 13 were measured by Reaction Biology Corporation (Reaction Biology Corp., One Great Valley Parkway, Suite 2, Malvern, PA 19355, USA . http://www.reactionbiology.com/pages/hdac.htm). The HDAC enzymes tested include the following 11 HDAC isoforms: HDAC1, HDAC2, HDAC3, HDAC4, HDAC5, HDAC6, HDAC7, HDAC8, HDAC9, HDAC10 and HDAC11.Specific steps were as follows: The compound of the present invention was dissolved in dimethyl sulfoxide (DMSO) to make a stock solution of 10 mM. The stock solution was diluted in 4-fold series starting from 10 mM to prepare 10 different dosages.
Histone deacetylase 4, sequence (P56524 whole entry, canonical isoform): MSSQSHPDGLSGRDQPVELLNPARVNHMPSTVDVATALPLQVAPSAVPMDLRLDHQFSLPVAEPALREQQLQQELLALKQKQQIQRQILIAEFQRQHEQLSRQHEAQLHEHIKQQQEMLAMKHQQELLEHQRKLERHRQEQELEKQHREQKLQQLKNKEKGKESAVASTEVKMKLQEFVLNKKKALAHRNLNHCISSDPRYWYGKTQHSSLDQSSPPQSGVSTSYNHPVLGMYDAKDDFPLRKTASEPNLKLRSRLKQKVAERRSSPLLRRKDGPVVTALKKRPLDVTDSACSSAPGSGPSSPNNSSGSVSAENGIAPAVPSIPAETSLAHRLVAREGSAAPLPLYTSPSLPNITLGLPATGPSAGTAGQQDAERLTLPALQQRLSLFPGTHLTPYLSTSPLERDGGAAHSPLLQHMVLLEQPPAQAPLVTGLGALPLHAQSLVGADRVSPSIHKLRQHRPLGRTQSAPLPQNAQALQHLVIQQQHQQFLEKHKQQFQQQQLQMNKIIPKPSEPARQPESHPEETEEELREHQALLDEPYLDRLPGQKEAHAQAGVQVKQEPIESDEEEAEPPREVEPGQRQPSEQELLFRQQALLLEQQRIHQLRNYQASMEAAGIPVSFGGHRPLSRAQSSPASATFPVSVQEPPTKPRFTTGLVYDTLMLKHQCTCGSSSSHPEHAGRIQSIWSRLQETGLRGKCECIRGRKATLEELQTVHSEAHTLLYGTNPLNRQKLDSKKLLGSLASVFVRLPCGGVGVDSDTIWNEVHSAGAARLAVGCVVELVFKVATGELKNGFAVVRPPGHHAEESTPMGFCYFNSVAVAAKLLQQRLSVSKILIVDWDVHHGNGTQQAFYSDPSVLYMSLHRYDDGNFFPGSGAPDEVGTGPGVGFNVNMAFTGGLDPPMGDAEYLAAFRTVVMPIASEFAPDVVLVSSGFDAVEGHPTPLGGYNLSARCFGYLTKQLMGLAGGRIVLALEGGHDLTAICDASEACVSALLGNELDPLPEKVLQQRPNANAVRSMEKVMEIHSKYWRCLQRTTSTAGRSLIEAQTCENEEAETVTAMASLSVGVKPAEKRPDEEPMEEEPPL

The target of assay [2] is T1, Polyamine deacetylase HDAC10 (Homo sapiens, UniProt Q969S8).
T1 sequence (Q969S8 whole entry): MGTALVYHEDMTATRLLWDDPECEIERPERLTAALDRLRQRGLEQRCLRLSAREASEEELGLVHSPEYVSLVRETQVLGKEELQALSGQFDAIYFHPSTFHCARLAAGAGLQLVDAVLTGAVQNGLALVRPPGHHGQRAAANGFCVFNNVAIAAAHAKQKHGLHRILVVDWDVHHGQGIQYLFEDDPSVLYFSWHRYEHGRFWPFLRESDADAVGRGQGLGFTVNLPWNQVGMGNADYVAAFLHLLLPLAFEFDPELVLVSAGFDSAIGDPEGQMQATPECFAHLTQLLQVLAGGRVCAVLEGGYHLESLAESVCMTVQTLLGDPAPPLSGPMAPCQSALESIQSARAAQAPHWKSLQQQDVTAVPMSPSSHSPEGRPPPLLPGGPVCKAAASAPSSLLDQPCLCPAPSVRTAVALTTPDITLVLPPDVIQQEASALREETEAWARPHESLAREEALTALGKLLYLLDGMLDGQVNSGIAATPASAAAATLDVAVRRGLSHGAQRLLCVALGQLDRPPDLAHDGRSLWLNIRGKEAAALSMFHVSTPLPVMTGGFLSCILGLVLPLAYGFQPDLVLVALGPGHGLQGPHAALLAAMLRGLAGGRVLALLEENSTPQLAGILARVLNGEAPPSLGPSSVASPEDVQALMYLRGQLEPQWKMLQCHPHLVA
Described as §1.

In assay [3] the target is Histone deacetylase 1 (Homo sapiens, UniProt Q13547). The description is as §1.
Histone deacetylase 1, sequence (Q13547 whole entry): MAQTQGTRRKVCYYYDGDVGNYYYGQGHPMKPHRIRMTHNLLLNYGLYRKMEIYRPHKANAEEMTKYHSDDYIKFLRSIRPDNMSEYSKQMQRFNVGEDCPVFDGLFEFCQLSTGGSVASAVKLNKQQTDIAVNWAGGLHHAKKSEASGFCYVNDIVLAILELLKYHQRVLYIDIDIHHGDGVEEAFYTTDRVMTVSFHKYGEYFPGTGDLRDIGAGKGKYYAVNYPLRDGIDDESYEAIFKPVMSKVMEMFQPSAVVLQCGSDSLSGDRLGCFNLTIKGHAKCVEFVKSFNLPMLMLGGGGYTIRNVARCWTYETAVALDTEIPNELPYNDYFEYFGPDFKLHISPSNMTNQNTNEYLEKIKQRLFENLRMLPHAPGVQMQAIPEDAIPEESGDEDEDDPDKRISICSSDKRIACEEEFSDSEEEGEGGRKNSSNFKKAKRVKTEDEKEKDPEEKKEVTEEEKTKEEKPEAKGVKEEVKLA
Assay [4] deals with Histone deacetylase 5 (Homo sapiens, UniProt Q9UQL6). The assay is described as §1.
Histone deacetylase 5, sequence (Q9UQL6 whole entry): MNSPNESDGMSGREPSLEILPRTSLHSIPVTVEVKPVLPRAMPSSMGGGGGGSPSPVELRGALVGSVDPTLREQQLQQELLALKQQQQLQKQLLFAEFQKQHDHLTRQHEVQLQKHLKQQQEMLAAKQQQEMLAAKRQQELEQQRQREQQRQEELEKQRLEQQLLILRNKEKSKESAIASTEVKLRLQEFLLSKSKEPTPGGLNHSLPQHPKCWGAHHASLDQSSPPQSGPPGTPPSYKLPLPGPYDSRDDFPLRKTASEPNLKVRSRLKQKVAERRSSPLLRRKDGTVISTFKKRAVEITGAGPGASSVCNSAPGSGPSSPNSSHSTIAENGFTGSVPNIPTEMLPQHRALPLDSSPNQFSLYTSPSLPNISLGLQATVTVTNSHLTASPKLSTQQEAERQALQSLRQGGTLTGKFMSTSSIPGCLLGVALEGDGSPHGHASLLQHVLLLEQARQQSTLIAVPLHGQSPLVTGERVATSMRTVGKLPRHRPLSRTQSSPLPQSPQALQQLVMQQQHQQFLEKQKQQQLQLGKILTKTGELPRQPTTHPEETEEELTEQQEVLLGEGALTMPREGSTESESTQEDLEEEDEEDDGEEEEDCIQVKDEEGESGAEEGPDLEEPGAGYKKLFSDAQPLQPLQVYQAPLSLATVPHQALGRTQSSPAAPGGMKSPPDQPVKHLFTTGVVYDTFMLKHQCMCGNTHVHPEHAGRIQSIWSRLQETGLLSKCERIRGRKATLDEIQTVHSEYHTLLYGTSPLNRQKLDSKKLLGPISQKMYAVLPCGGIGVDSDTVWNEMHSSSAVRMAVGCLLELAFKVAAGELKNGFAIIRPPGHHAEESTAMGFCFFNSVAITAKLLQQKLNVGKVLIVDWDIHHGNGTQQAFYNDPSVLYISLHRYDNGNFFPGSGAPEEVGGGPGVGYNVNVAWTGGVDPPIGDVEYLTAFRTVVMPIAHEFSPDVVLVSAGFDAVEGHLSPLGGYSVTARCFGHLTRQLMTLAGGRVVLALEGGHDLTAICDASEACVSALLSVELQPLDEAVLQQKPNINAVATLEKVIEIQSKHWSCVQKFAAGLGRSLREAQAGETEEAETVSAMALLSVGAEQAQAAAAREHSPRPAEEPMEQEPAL
The target of assay [5] is T2, Histone deacetylase 8 (Homo sapiens, UniProt Q9BY41).
T2 sequence (Q9BY41 whole entry): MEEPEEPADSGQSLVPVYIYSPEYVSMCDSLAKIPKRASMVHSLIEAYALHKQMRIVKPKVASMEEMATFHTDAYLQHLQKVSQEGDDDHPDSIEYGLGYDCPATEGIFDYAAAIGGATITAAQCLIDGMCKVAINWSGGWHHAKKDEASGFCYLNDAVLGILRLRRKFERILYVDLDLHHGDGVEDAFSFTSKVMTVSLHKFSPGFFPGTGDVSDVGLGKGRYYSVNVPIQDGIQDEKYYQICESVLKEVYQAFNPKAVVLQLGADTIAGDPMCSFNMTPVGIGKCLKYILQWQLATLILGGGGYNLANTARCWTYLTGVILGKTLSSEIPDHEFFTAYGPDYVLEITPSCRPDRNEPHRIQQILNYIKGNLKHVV
The description is as §1.

Assay [6] deals with T3, Protein deacetylase HDAC6 (Homo sapiens, UniProt Q9UBN7).
T3 sequence (Q9UBN7 whole entry): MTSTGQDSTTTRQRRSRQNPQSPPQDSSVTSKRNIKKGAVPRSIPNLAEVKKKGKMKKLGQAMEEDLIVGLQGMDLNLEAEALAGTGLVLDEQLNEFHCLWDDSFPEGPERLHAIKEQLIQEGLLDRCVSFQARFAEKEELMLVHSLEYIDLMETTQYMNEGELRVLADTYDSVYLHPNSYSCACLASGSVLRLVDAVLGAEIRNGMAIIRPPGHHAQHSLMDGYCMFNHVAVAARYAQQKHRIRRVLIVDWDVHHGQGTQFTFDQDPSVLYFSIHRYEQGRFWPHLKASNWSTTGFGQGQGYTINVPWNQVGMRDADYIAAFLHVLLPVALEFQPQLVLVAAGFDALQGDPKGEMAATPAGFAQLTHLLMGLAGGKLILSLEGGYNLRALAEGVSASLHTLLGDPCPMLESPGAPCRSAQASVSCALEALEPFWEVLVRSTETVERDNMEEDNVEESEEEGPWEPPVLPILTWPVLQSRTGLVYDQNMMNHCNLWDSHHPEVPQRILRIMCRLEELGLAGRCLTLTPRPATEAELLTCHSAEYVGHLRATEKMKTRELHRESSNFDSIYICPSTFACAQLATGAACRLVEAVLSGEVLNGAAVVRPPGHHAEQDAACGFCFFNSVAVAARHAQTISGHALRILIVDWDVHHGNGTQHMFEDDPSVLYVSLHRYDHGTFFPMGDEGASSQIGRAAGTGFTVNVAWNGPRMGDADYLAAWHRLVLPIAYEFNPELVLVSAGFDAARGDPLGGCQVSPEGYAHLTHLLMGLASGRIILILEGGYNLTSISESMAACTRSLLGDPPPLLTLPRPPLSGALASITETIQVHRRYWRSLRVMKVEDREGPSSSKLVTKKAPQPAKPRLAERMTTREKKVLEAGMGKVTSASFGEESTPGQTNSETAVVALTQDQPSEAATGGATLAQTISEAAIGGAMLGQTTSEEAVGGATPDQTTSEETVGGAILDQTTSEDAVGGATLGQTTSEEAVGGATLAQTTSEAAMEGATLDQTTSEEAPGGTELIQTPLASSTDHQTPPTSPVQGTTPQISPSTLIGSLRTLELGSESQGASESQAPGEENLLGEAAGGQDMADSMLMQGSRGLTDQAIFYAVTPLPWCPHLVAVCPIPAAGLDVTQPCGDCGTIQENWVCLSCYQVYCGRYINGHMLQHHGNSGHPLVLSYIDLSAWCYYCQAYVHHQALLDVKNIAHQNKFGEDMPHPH
The assay is described as §1.

The target of assay [7] is Histone deacetylase 2 (Homo sapiens, UniProt Q92769). The description is as §1.
Histone deacetylase 2, sequence (Q92769 whole entry): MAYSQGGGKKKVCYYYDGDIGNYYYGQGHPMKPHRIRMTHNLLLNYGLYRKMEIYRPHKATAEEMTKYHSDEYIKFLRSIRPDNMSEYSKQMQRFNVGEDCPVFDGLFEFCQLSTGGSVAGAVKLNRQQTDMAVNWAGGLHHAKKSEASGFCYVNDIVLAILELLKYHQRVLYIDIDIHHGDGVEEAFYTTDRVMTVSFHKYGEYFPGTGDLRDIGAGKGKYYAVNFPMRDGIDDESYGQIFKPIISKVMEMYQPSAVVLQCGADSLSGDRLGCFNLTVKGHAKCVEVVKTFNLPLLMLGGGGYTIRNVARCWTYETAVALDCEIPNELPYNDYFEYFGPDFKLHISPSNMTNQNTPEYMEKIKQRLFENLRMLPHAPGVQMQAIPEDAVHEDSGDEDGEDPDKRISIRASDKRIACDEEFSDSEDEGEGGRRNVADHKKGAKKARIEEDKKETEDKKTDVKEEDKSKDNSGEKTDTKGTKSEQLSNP
For assay [8], the target named is T4, Histone deacetylase 11 (Homo sapiens, UniProt Q96DB2).
T4 sequence (Q96DB2 whole entry): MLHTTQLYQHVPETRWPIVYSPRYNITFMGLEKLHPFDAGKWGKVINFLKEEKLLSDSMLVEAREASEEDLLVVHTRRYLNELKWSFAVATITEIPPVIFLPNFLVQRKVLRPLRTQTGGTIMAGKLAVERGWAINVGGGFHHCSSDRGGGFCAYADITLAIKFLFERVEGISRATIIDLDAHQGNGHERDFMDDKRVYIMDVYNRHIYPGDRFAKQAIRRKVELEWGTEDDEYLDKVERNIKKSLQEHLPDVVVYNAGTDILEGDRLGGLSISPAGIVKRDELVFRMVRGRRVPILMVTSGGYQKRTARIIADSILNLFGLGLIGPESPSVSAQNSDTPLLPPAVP
The description is as §1.

The IC50 is the concentration needed to halve the response being measured. A low value points to inhibition by little substance. For the compound `COc1cc2c(Oc3ccc(NC(=O)C4(C(=O)Nc5ccc(F)cc5)CC4)cc3F)ccnc2cc1OCCCCCC(=O)NO`, the IC50 in assay [1] was greater than 10 µM; in assay [2], 11.9 µM; in assay [3], greater than 10 µM; in assay [4], greater than 10 µM; in assay [5] it was 1.63 µM; in assay [6] it was 0.0083 µM. Further, the IC50 in assay [7] stood at 2.74 µM; in assay [8], 6.13 µM.

`COc1cc2c(Oc3ccc(NC(=O)C4(C(=O)Nc5ccc(F)cc5)CC4)cc3F)ccnc2cc1OCCCC(=O)NO`: the IC50 in assay [1] was greater than 10 µM; in assay [2] it was greater than 10 µM; in assay [3], greater than 10 µM; in assay [4], greater than 10 µM; in assay [5], 8.94 µM; in assay [6], 0.242 µM. The IC50 in assay [7] was 0.431 µM; in assay [8] it was greater than 10 µM.

The values above are taken from ChEMBL document CHEMBL3886358, “Quinolyl-containing hydroxamic acid compound and preparation method thereof, and pharmaceutical composition containing this compound and use thereof” (2015).
